Test results taken from PubChem BioAssay (NCI).
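Five compound concentrations were applied to cells in 96-well plates for 48 hours; endpoints were derived by simple linear interpolation of the resulting dose-response curve. TGI is the concentration that stops growth completely.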

Tests used:
Test in all cases: NCI-60 cell line screen, 48 h
PC-3 prostate = test system: PC-3 prostate
A498 renal = test system: A498 renal
UACC-257 melanoma = test system: UACC-257 melanoma
SF-539 CNS = test system: SF-539 CNS
RXF 393 renal = test system: RXF 393 renal
UO-31 renal = test system: UO-31 renal
HCC-2998 colon = test system: HCC-2998 colon
HOP-92 NSCLC = test system: HOP-92 NSCLC
TK-10 renal = test system: TK-10 renal
NCI/ADR-RES ovarian = test system: NCI/ADR-RES ovarian
T-47D breast = test system: T-47D breast
MALME-3M melanoma = test system: MALME-3M melanoma
HT29 colon = test system: HT29 colon
DU-145 prostate = test system: DU-145 prostate
NCI-H23 lung = test system: NCI-H23 lung
NCI-H522 lung = test system: NCI-H522 lung
OVCAR-4 ovarian = test system: OVCAR-4 ovarian
HS 578T breast = test system: HS 578T breast
786-0 renal = test system: 786-0 renal

Row | Structure (SMILES) | TGI (PC-3 prostate) | TGI (A498 renal) | TGI (UACC-257 melanoma) | TGI (SF-539 CNS) | TGI (RXF 393 renal) | TGI (UO-31 renal) | TGI (HCC-2998 colon) | TGI (HOP-92 NSCLC) | TGI (TK-10 renal) | TGI (NCI/ADR-RES ovarian) | TGI (T-47D breast) | TGI (MALME-3M melanoma) | TGI (HT29 colon) | TGI (DU-145 prostate) | TGI (NCI-H23 lung) | TGI (NCI-H522 lung) | TGI (OVCAR-4 ovarian) | TGI (HS 578T breast) | TGI (786-0 renal)
1 | CC(=N\N=C\c1ccccn1)/C(C)=N/N=C/c1ccccn1 | > 100 µM | > 100 µM | > 100 µM | > 100 µM | > 100 µM | > 100 µM | > 100 µM | > 100 µM | > 100 µM | > 100 µM | > 100 µM | > 100 µM | > 100 µM | > 100 µM | > 100 µM | > 100 µM | > 100 µM | > 100 µM | > 100 µM
2 | CC(C)=CCC[C@@H](C)C1=C(O)C(Nc2ccccc2F)=C(C)C(=O)C1=O | > 100 µM | 67.2 µM | > 100 µM | – | > 57.1 µM | 47.7 µM | > 100 µM | > 65.3 µM | > 100 µM | 23 µM | 57.7 µM | 41.1 µM | > 100 µM | > 67.8 µM | > 56.8 µM | – | > 100 µM | 54.8 µM | > 100 µM
3 | COc1ccc(-c2cc(-c3ccc(Nc4ccnc5cc(C(F)(F)F)ccc45)cc3)[nH]c(=O)c2C#N)cc1 | > 100 µM | > 55.1 µM | > 100 µM | > 68.9 µM | > 53.5 µM | – | > 100 µM | > 100 µM | > 68.2 µM | > 100 µM | > 100 µM | > 100 µM | > 80.4 µM | > 100 µM | > 60.8 µM | > 100 µM | > 100 µM | 49.6 µM | > 100 µM
4 | COc1ccc(CCN2CCOCC2)cc1 | > 100 µM | > 100 µM | > 100 µM | > 100 µM | > 100 µM | > 100 µM | > 100 µM | > 100 µM | > 100 µM | > 100 µM | > 100 µM | > 100 µM | > 100 µM | > 100 µM | > 100 µM | > 100 µM | – | > 100 µM | > 100 µM
5 | CCOC(=O)C1CCCC1S(=O)(=O)c1ccc(C)cc1 (stereo not drawn) | > 100 µM | > 100 µM | – | – | > 100 µM | > 100 µM | > 100 µM | > 100 µM | > 100 µM | > 100 µM | > 100 µM | > 100 µM | > 100 µM | > 100 µM | > 100 µM | > 100 µM | > 100 µM | > 100 µM | > 100 µM
6 | CN1CCN(CCCCNc2cc3c4ccccc4c(NCCCCN4CCN(C)CC4)cc3c3ccccc23)CC1 | 21.2 µM | 28.5 µM | 19 µM | 3.28 µM | 3.13 µM | 11.8 µM | 3.29 µM | 28.2 µM | 18.4 µM | 21.6 µM | 84.2 µM | 5.09 µM | 4.19 µM | 3.14 µM | – | 6.51 µM | 2.87 µM | 5.65 µM | 3.48 µM
7 | COc1cc(C(c2cc(OC)c(OC)c(OC)c2)N2C(=O)CCC2C(=O)O)cc(OC)c1OC (stereo not drawn) | > 100 µM | > 100 µM | > 100 µM | > 100 µM | > 100 µM | > 100 µM | – | > 100 µM | – | > 100 µM | > 100 µM | > 100 µM | > 100 µM | > 100 µM | > 100 µM | > 100 µM | > 100 µM | > 100 µM | > 100 µM
8 | O=C(O)C1(CC(CCCN2CCCCC2)c2ccccc2)CCCC1 (stereo not drawn) | > 100 µM | > 100 µM | – | > 100 µM | > 100 µM | > 100 µM | > 100 µM | > 100 µM | > 100 µM | > 100 µM | > 100 µM | > 100 µM | > 100 µM | > 100 µM | > 100 µM | > 100 µM | > 100 µM | > 100 µM | > 100 µM
9 | COc1cc(OC)c(NC2=NCCO2)cc1Cl | 71.8 µM | 81.5 µM | > 100 µM | 53.3 µM | > 100 µM | > 100 µM | 71.1 µM | – | > 100 µM | 91.7 µM | > 100 µM | > 100 µM | 47.8 µM | > 100 µM | 58.1 µM | > 100 µM | > 100 µM | > 100 µM | 90 µM
10 | CC1(C)C(C(=O)OC(C#N)c2cccc(OCC(=O)OCc3ccccc3)c2)C1(C)C (stereo not drawn) | > 100 µM | > 100 µM | > 100 µM | > 100 µM | > 100 µM | > 100 µM | – | > 100 µM | > 100 µM | > 100 µM | > 100 µM | > 100 µM | > 100 µM | > 100 µM | > 100 µM | > 100 µM | > 100 µM | > 100 µM | > 100 µM
